US20140357655A1, “SPIROINDOLINE DERIVATIVES AS GONADOTROPIN- RELEASING HORMONE RECEPTOR ANTAGONISTS” (Bayer Intellectual Property GmbH, priority 2012, published 2014)

Target: T1, human GnRH receptor (Homo sapiens, UniProt P30968)
T1 sequence (P30968 1-328): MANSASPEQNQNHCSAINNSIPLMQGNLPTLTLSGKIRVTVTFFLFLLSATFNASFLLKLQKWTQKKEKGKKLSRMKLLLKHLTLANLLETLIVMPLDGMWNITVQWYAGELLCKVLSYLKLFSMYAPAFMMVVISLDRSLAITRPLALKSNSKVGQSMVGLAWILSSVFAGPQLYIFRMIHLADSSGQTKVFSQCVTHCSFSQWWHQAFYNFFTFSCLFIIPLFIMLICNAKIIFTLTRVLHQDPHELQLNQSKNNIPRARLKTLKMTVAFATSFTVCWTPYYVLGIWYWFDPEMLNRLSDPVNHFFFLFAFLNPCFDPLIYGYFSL
Experiment: IP-One HTRF assay with buserelin (at EC80) stimulation
Type: cell-based
Conditions: CHO cells stably expressing human GnRH receptor, read-out: Potency in IP-One HTRF assay, given as IC50
In short: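 Ten-point duplicate titrations (20 μM to 1 nM) were fitted by 4-parameter model to normalized 665/620 nm HTRF ratios, 0% = no compound, 100% = no agonist. Assay measured IP1 accumulation in human GnRH-R CHO cells stimulated 1 h at 37° C with EC80 buserelin, then lysed 1 h at 22° C.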

| SMILES | IC50 [nM] |
| --- | --- |
| CC(C)(NC(=O)c1ccc2c(c1)C1(CCS(=O)(=O)CC1)C(C1CC1)N2S(=O)(=O)c1ccc(F)cc1)c1ccc(F)cc1 (stereo not drawn) [Example 20, 2-cyclopropyl-N-(4-fluoro-α,α-dimethylbenzyl)-1-[(4-fluorophenyl)sulfonyl]-1,2,2′,3′,5′,6′-hexahydrospiro[indole-3,4′-thiopyran]-5-carboxamide 1′,1′-dioxide] | 346 |
| O=C(O)c1cccc(NC(=O)c2ccc3c(c2)C2(CCS(=O)(=O)CC2)C(C2CC2)N3S(=O)(=O)c2cccc(OC(F)(F)F)c2)c1 (stereo not shown) [Example 83, 3-{[(2-cyclopropyl-1′,1′-dioxido-1-{[3-(trifluoromethoxy)phenyl]sulfonyl}-1,2,2′,3′,5′,6′-hexahydrospiro[indole-3,4′-thiopyran]-5-yl)carbonyl]amino}benzoic acid] | 140 |
| COc1cccc(S(=O)(=O)N2c3ccc(C(=O)NCc4ccccc4C(F)(F)F)cc3C3(CCS(=O)(=O)CC3)C2C2CC2)c1 (stereo not shown) [Example 40, 2-cyclopropyl-1-[(3-methoxyphenyl)sulfonyl]-N-[2-(trifluoromethyl)benzyl]-1,2,2′,3′,5′,6′-hexahydrospiro[indole-3,4′-thiopyran]-5-carboxamide 1′,1′-dioxide] | 32 |
| Cc1cc(NS(=O)(=O)c2cccc(NC(=O)c3ccc4c(c3)C3(CCS(=O)(=O)CC3)C(C3CC3)N4S(=O)(=O)c3ccc(F)cc3)c2)no1 (stereo not shown) [Example 66, 2-cyclopropyl-1-[(4-fluorophenyl)sulfonyl]-N-{3-[(5-methyl-1,2-oxazol-3-yl)sulfamoyl]phenyl}-1,2,2′,3′,5′,6′-hexahydrospiro[indole-3,4′-thiopyran]-5-carboxamide 1′,1′-dioxide] | 177 |
| COc1cccc(S(=O)(=O)N2c3ccc(C(=O)NCc4ncccc4C)cc3C3(CCS(=O)(=O)CC3)C2C2CC2)c1 (single isomer, unassigned) [Example 45.2, 2-cyclopropyl-1-[(3-methoxyphenyl)sulfonyl]-N-[(3-methylpyridin-2-yl)methyl]-1,2,2′,3′,5′,6′-hexahydrospiro[indole-3,4′-thiopyran]-5-carboxamide 1′,1′-dioxide] | 4460 |
| O=C(O)c1cccc(NC(=O)c2ccc3c(c2)C2(CCS(=O)(=O)CC2)C(C2CC2)N3S(=O)(=O)c2ccc(F)cc2)c1 (single isomer, unassigned) [Example 49.2, 3-[({2-cyclopropyl-1-[(4-fluorophenyl)sulfonyl]-1′,1′-dioxido-1,2,2′,3′,5′,6′-hexahydrospiro[indole-3,4′-thiopyran]-5-yl}carbonyl)amino]benzoic acid] | 109 |
| CC1N(S(=O)(=O)c2ccc(F)cc2)c2ccc(C(=O)NCc3ccccc3Cl)cc2C12CCOCC2 (single isomer, unassigned) [Example 2.2, N-(2-chlorobenzyl)-1-[(4-fluorophenyl)sulfonyl]-2-methyl-1,2,2′,3′,5′,6′-hexahydrospiro[indole-3,4′-pyran]-5-carboxamide] | 83 |
| O=C(NCC1CCCCC1)c1ccc2c(c1)C1(CCS(=O)(=O)CC1)C(C1CC1)N2S(=O)(=O)c1ccc(F)cc1 (single isomer, unassigned) [Example 36.1, N-(cyclohexylmethyl)-2-cyclopropyl-1-[(4-fluorophenyl)sulfonyl]-1,2,2′,3′,5′,6′-hexahydrospiro[indole-3,4′-thiopyran]-5-carboxamide 1′,1′-dioxide] | 107 |
| O=C(NCC1CC1)c1ccc2c(c1)C1(CCS(=O)(=O)CC1)C(C1CC1)N2S(=O)(=O)c1ccc(F)cc1 (single isomer, unassigned) [Example 35.2, 2-cyclopropyl-N-(cyclopropylmethyl)-1-[(4-fluorophenyl)sulfonyl]-1,2,2′,3′,5′,6′-hexahydrospiro[indole-3,4′-thiopyran]-5-carboxamide 1′,1′-dioxide] | > 20000 |
| COc1cccc(S(=O)(=O)N2c3ccc(C(=O)NCc4ncccc4C)cc3C3(CCS(=O)(=O)CC3)C2C2CC2)c1 (single isomer, unassigned) [Example 45.1, 2-cyclopropyl-1-[(3-methoxyphenyl)sulfonyl]-N-[(3-methylpyridin-2-yl)methyl]-1,2,2′,3′,5′,6′-hexahydrospiro[indole-3,4′-thiopyran]-5-carboxamide 1′,1′-dioxide] | 253 |
| CN(C)C(=NS(=O)(=O)c1cccc(NC(=O)c2ccc3c(c2)C2(CCS(=O)(=O)CC2)C(C2CC2)N3S(=O)(=O)c2ccc(F)cc2)c1)N(C)C (single isomer, unassigned) [Example 64.1, N-(3-{[bis(dimethylamino)methylidene]sulfamoyl}phenyl)-2-cyclopropyl-1-[(4-fluorophenyl)sulfonyl]-1,2,2′,3′,5′,6′-hexahydrospiro[indole-3,4′-thiopyran]-5-carboxamide 1′,1′-dioxide] | 4.6 |
| O=C(NCc1ccccc1C(F)(F)F)c1ccc2c(c1)C1(CCS(=O)(=O)CC1)C(C1CC1)N2S(=O)(=O)c1ccc(F)cc1 (stereo not shown) [Example 32, 2-cyclopropyl-1-[(4-fluorophenyl)sulfonyl]-N-[2-(trifluoromethyl)benzyl]-1,2,2′,3′,5′,6′-hexahydrospiro[indole-3,4′-thiopyran]-5-carboxamide 1′,1′-dioxide] | 58 |
| CS(=O)(=O)c1cccc(NC(=O)c2ccc3c(c2)C2(CCS(=O)(=O)CC2)C(C2CC2)N3S(=O)(=O)c2ccc(F)cc2)c1 (single isomer, unassigned) [Example 23.1, 2-cyclopropyl-1-[(4-fluorophenyl)sulfonyl]-N-(3-mesylphenyl)-1,2,2′,3′,5′,6′-hexahydrospiro[indole-3,4′-thiopyran]-5-carboxamide 1′,1′-dioxide] | 1870 |
| O=C(O)c1cccc(S(=O)(=O)N2c3ccc(C(=O)NCc4ccccc4Cl)cc3C3(CCS(=O)(=O)CC3)C2C2CC2)c1 (single isomer, unassigned) [Example 61.1, 3-({5-[(2-chlorobenzyl)carbamoyl]-2-cyclopropyl-1′,1′-dioxido-2′,3′,5′,6′-tetrahydrospiro[indole-3,4′-thiopyran]-1(2H)-yl}sulfonyl)benzoic acid] | 84 |
| C=CCC1N(S(=O)(=O)c2ccc(F)cc2)c2ccc(C(=O)Nc3cccc(C(=O)OC)c3)cc2C12CCS(=O)(=O)CC2 (stereo not shown) [Example 58, methyl 3-[({1-[(4-fluorophenyl)sulfonyl]-1′,1′-dioxido-2-(prop-2-en-1-yl)-1,2,2′,3′,5′,6′-hexahydrospiro[indole-3,4′-thiopyran]-5-yl}carbonyl)amino]benzoate] | 41 |
| O=C(NCC1CCCC1)c1ccc2c(c1)C1(CCS(=O)(=O)CC1)C(C1CC1)N2S(=O)(=O)c1ccc(F)cc1 (single isomer, unassigned) [Example 38.1, N-(cyclopentylmethyl)-2-cyclopropyl-1-[(4-fluorophenyl)sulfonyl]-1,2,2′,3′,5′,6′-hexahydrospiro[indole-3,4′-thiopyran]-5-carboxamide 1′,1′-dioxide] | 88 |
| N#Cc1ccc(S(=O)(=O)N2c3ccc(C(=O)NCc4ccccc4C(F)(F)F)cc3C3(CCS(=O)(=O)CC3)C2C2CC2)cc1 (single isomer, unassigned) [Example 72.2, 1-[(4-cyanophenyl)sulfonyl]-2-cyclopropyl-N-[2-(trifluoromethyl)benzyl]-1,2,2′,3′,5′,6′-hexahydrospiro[indole-3,4′-thiopyran]-5-carboxamide 1′,1′-dioxide] | 403 |
| O=C(NCc1ccc(F)cc1Cl)c1ccc2c(c1)C1(CCS(=O)(=O)CC1)C(C1CC1)N2S(=O)(=O)c1ccc(F)cc1 (single isomer, unassigned) [Example 16.1, N-(2-chloro-4-fluorobenzyl)-2-cyclopropyl-1-[(4-fluorophenyl)sulfonyl]-1,2,2′,3′,5′,6′-hexahydrospiro[indole-3,4′-thiopyran]-5-carboxamide 1′,1′-dioxide] | 62 |
| N#Cc1cccc(S(=O)(=O)N2c3ccc(C(=O)Nc4cncc(Cl)c4)cc3C3(CCS(=O)(=O)CC3)C2C2CC2)c1 (single isomer, unassigned) [Example 77.1, N-(5-chloropyridin-3-yl)-1-[(3-cyanophenyl)sulfonyl]-2-cyclopropyl-1,2,2′,3′,5′,6′-hexahydrospiro[indole-3,4′-thiopyran]-5-carboxamide 1′,1′-dioxide] | 54 |
| NC(=O)c1cccc(NC(=O)c2ccc3c(c2)C2(CCS(=O)(=O)CC2)C(C2CC2)N3S(=O)(=O)c2ccc(F)cc2)c1 (single isomer, unassigned) [Example 51.1, N-(3-carbamoylphenyl)-2-cyclopropyl-1-[(4-fluorophenyl)sulfonyl]-1,2,2′,3′,5′,6′-hexahydrospiro[indole-3,4′-thiopyran]-5-carboxamide 1′,1′-dioxide] | 80 |
| O=C(NCc1ccccc1C(F)(F)F)c1ccc2c(c1)C1(CCS(=O)(=O)CC1)C(C1CC1)N2S(=O)(=O)c1ccc(F)cc1 (single isomer, unassigned) [Example 32.1, 2-cyclopropyl-1-[(4-fluorophenyl)sulfonyl]-N-[2-(trifluoromethyl)benzyl]-1,2,2′,3′,5′,6′-hexahydrospiro[indole-3,4′-thiopyran]-5-carboxamide 1′,1′-dioxide] | 34 |
| COc1cccc(S(=O)(=O)N2c3ccc(C(=O)NCc4ncccc4F)cc3C3(CCS(=O)(=O)CC3)C2C2CC2)c1 (stereo not shown) [Example 53, 2-cyclopropyl-N-[(3-fluoropyridin-2-yl)methyl]-1-[(3-methoxyphenyl)sulfonyl]-1,2,2′,3′,5′,6′-hexahydrospiro[indole-3,4′-thiopyran]-5-carboxamide 1′,1′-dioxide] | 617 |
